Results from publication PMC6768323, “Adverse Maternal, Fetal, and Postnatal Effects of Hexafluoropropylene Oxide Dimer Acid (GenX) from Oral Gestational Exposure in Sprague-Dawley Rats” (Environmental Health Perspectives, 2019).
Where “and” joins values, the source holds several entries; their conditions need not be identical. Identical values can stand only once.

Legend:
fetal testis = experiment: Ex vivo fetal testis testosterone production; assay type: in vivo, Sprague-Dawley rats; conditions: any dose
Protocol: For the first two blocks, spanning the full dose range, late gestation (GD18) dams were euthanized by decapitation at ∼2h after the final oral dose [ ∼0830–1000 hours Eastern Standard Time (EST)]. Trunk blood was collected and serum isolated via centrifugation ( 10,000×g for 15 min at 4°C) in vacutainer tubes, transferred to 1.5-mL microcentrifuge tubes and stored at −80°C . Dam liver weight was recorded and a sample of liver tissue was collected into a polypropylene microcentrifuge tube containing 500μL TRIzol Reagent (Invitrogen) on ice. Fetuses were removed and two randomly selected fetuses per litter were weighed. […] Ex vivo fetal testis testosterone production was measured as previously reported ([Wilson et al. 2004b]) except the radioimmunoassay (RIA) utilized here was supplied by ALPCO (Catalog No. 72-TESTO-CT2, ALPCO). […]
Fetal testis testosterone production was normalized to the mean control concentration within a given block and analyzed as percentage of control values across blocks. Maternal liver weight was analyzed using body weight as a covariate within PROC GLM followed by pairwise comparison using LSMEANS, this analysis produces linear regressions of body weight versus liver weight for each dose group. […]

[1] = HFPO-DA concentrations in maternal serum and fetal plasma; assay type: in vivo, Sprague-Dawley rats
Protocol: Maternal sera from all three blocks and fetal plasma from the third block were analyzed for HFPO-DA concentrations similar to previously reported methods ([McCord et al. 2018]; [Reiner et al. 2009]; [Rushing et al. 2017]). Serum or plasma samples ( 25μL ) were denatured using 0.1M formic acid (FA) followed by a cold ( −20°C ) acetonitrile (ACN) protein crash. The volumes of FA and ACN varied based on the anticipated concentrations of HFPO-DA in the sample ( 0–100 ng HFPO-DA/mL=100μL FA +0.5mL ACN; 100–5,000 ng HFPO-DA/mL=100μL FA +1.0mL ACN; 5,000–200,000 ng HFPO-DA/mL=1.0mL FA added, then 100-μL subsamples removed and crashed with 900μL cold ACN). Samples were vortex mixed after FA and ACN additions then centrifuged at 10,000×g for 5 min and the supernatant removed. Sample extracts were separated using a Waters ACQUITY ultra performance liquid chromatograph (UPLC) (Waters Corporation) fitted with a Waters ACQUITY UPLC BEH C18 column ( 2.1mm×50mm; 1.7μm; 130 Å ). Detection was performed using a Waters Quattro Premier XE tandem quadrupole mass spectrometer in negative ionization mode. A stable isotope of HFPO-DA ( C313 , Wellington Laboratories) was used as an internal standard for quantitation. Separate calibration curves were prepared for the ranges 0–100 ng/mL , 100–5,000 ng/mL , and 5,000–200,000 ng/mL to account for expected concentration differences between control, offspring (fetus/pup), and dam concentrations across the dose range tested.
Serum HFPO-DA concentrations in the mother and the fetus were analyzed as a function of oral dose administered to the mother. We utilized nonlinear regression (exponential one-phase association) to describe the increase and saturation of serum HFPO-DA concentrations across the full oral dose range ( 1–500mg/kg ) for maternal serum. Fetal plasma HFPO-DA concentrations were only analyzed in the low-dose range ( 1–30mg/kg ), which was better described using a linear uptake model. We compared the slopes of the low-dose linear regressions for maternal serum and fetal plasma HFPO-DA concentrations using GraphPad Prism.

SMILES: O=C(O)C(F)(OC(F)(F)C(F)(F)C(F)(F)F)C(F)(F)F (stereo not drawn) [HFPO-DA, Hexafluoropropylene oxide dimer acid]
- fetal testis testosterone production versus controls (fetal testis): not significantly different from controls at any dose
- fetal plasma HFPO-DA slope per 1-mg/kg increase in oral maternal dose ([1]; 1-30 mg/kg, linear regression): 0.12 µg/mL and 0.12 ± 0.0094 µg/mL
- fetal plasma y-intercept ([1]; 1-30 mg/kg, linear regression): 0.17±0.13
- maternal serum HFPO-DA slope per 1-mg/kg increase in oral maternal dose ([1]; 1-30 mg/kg, linear regression): 0.46 µg/mL and 0.46 ± 0.06 µg/mL
- maternal serum y-intercept ([1]; 1-30 mg/kg, linear regression): 0.032±0.80
- plateau of maternal serum HFPO-DA, exponential one-phase association ([1]; 1-500 mg/kg): 112 ± 15 µg/mL
